“Also recorded” adds a separate entry of the source.

These results are taken from patent publication US20210040151A1, “MICROMOLECULE POLYPEPTIDE AND USE THEREOF” (NANFANG HOSPITAL OF SOUTHERN MEDICAL UNIVERSITY, priority 2019, published 2021).

Experiment [1] relates to UUO mice. In words: Kidney fibrosis in UUO (unilateral ureter ligation) mouse model: sirus scarlet staining, fibronectin immunostaining, western blot. The experiment is classed as in vivo, BALB/C mice. As for the experimental part: (§1) BALB/C mice, male and female, a weight ranging from 20 g to 22 g, and a SPF grade.
(§2) The animals were weighed and numbered. 18 healthy mice with a weight ranging from 20 g to 22 g were selected and randomly divided into 3 groups, with 6 mice in each group, including a sham operation group, a model group and an administration group.
(§3) 1) Sham operation group: at a room temperature, after mice were anaesthetized with 3% pentobarbital sodium at 1 ml/kg body weight, a left abdomen part of 2 cm to 3 cm was selected as an incision; and skin, a subcutaneous layer, a muscular layer and a peritoneum were cut layer by layer after local disinfection, and then were sutured layer by layer immediately after finding a left ureter. After local disinfection, the mice were verified and marked, and then placed in a corresponding mouse cage.
(§4) 2) Model control group: anesthetization and disinfection were performed same as the sham operation group. Skin, a subcutaneous layer, a muscular layer and a peritoneum were cut layer by layer, and then were sutured layer by layer after finding a left ureter and performing a ligation at an upper ⅓ segment of the ureter. After local disinfection, the mice were verified and marked, and then placed in a corresponding mouse cage.
(§5) 3) Administration group: anesthetization and disinfection were performed same as sham operation group. Skin, a subcutaneous layer, a muscular layer and a peritoneum were cut layer by layer, and then were sutured layer by layer after finding a left ureter and performing a ligation at an upper ⅓ segment of the ureter. After local disinfection, the mice were verified and marked, and then placed in a corresponding mouse cage.
KP-6T or KP-6 water soluble powder was diluted with sterile 0.01 Mol glacial acetic acid solution to a storage concentration of 10 mg/ml. The mice of each experimental group were raised in different cages. The sham operation group was only observed. The model control group was only given 0.01 Mol glacial acetic acid solution by tail vein injection. The administration group was given glacial acetic acid solution containing KP-6T or KP-6 of 0.5 mg/kg of body weight by tail vein injection on the 1st or 5th day after UUO operation for 6 consecutive days. The mice in each group were euthanized after 7 days or 11 days of raising, left kidneys were taken, and then tissues were respectively fixed with 10% neutral formaldehyde and frozen with liquid nitrogen. The formaldehyde-fixed tissues were dehydrated, embedded, sliced and flaked, and then subjected to sirus scarlet staining and fibronectin immumohistochemical staining respectively. A protein was extracted after homogenization of the frozen tissues, and a fibrosis index, and expression levels of an active-β-catenin and a target gene thereof were detected by western blot.
1) A degree of kidney tissue fibrosis was detected by sirus scarlet staining.

The test system of experiment [2] is β-catenin signal pathway. The experiment is described as follows: β-catenin signal pathway in kidney tissue of UUO mice: western blot, mRNA of target genes. The class given is in vivo, BALB/C mice. As for the experimental part:
as §1, §2, §3, §4, §5
KP-6T or KP-6 water soluble powder was diluted with sterile 0.01 Mol glacial acetic acid solution to a storage concentration of 10 mg/ml. The mice of each experimental group were raised in different cages. […] A protein was extracted after homogenization of the frozen tissues, and a fibrosis index, and expression levels of an active-β-catenin and a target gene thereof were detected by western blot.

[3] abbreviates: UUO mice, 0.5 mg/kg tail vein injection for 6 days from 1st or 5th day after UUO, vs model control group (FIG. 2 and FIG. 5).
Where [4] appears, read: advanced UUO mouse, administration from 5th day after UUO, 0.5 mg/kg tail vein, vs model group (FIG. 7).
Where [5] appears, read: advanced UUO mouse, administration from 5th day after UUO, 0.5 mg/kg tail vein, vs model group (FIG. 7), 0.5 mg/kg.
Where [6] appears, read: UUO mice, 0.5 mg/kg tail vein injection for 6 days from 1st or 5th day after UUO, vs model control group (FIG. 3 and FIG. 6).

Take “LQDAYGGWANR (Synthesized by Nanjing Genscript Biotechnology Co. Ltd.) [KP-6T]”: the “collagen deposition in renal interstitium (sirus scarlet staining)” value in experiment [1] (UUO mice, 0.5 mg/kg tail vein injection for 6 consecutive days from 1st or 5th day after UUO, vs model control group (FIG. 1 and FIG. 4)) is “significantly lower”. Besides, in experiment [1] (setting [3]), the “level of fibronectin in kidneys” value is given as “significantly reduced” and the “level of smooth muscle actin α (α-SMA) in kidneys” value was “significantly reduced”. For the same sequence, the “collagen deposition in the renal interstitium” value in experiment [1] (administered the 5th day after UUO) is on record as “significantly inhibit”. In experiment [1] (setting [4]), the “deposition of extracellular matrix in renal interstitium” value is reported as “significantly reduced” and the “protein Klotho expressed by healthy kidney tubular epithelial cells” value is “recovered”. Besides, in experiment [1] (setting [5]), the “level of fibronectin in kidneys” value was “significantly reduced; also recorded: significantly inhibit” and the “level of smooth muscle actin α (α-SMA) in kidneys” value is listed as “significantly reduced; also recorded: significantly inhibit”. For the same sequence, in experiment [2] (setting [6]), the “expression level of downstream target gene of β-catenin (PAI-1, Snail-1, MMP7 mRNA) in kidneys” value is “significantly reduced” and the “expression level of β-catenin protein in kidneys” value is given as “significantly reduced”. Moreover, the “Wnt signal pathway (active-β-catenin)” value in experiment [2] (setting [4]) is reported as “inhibited”.
